Laboratory results published in US11708391B2, “Rapaglutins, novel inhibitors of GLUT and use thereof” (The Johns Hopkins University, priority 2016, dated 2023).
pIC50: −log10 of the molar value. Like-named read-outs stand apart in the source and are kept apart here.

Tests used:
glucose transporters [1] = settings: CHO-K1; read-out: IC50 (cell line); cited from earlier work
glucose transporters [2] = settings: LNCaP; read-out: IC50 (cell line); cited from earlier work
glucose transporters [3] = settings: DU145; read-out: IC50 (cell line); cited from earlier work
glucose transporters [4] = settings: HL-60; read-out: IC50 (cell line); cited from earlier work
glucose transporters [5] = settings: SW620; read-out: IC50 (cell line); cited from earlier work
glucose transporters [6] = assay: 2-deoxy-D-[3H] glucose uptake in A549 cells; type: cell-based, human; settings: A549 cells
Method: FIGS. 2A-2D. Inhibition of Glucose Transport by A18 and E11. (a) Inhibition of 3-O-methyl¬D-[3H] glucose uptake in A549 cells by A18. (b) Inhibition of 3-O-methyl-D-[3H] glucose uptake in A549 cells by E11. (c) Inhibition of 2-deoxy-D-[3H] glucose uptake in A549 […] cells by A18. (d) Inhibition of 2-deoxy-D-[3H] glucose uptake in A549 cells by E11.
FIGS. 16A-16B. Inhibition of Glucose Transport by A18 and E11. Cytochalasin B (10 μM), A18 (3 μM), E11 (3 μM) and DMSO control were used to treated A549 cells for 10 min (a) or 1 min (b), then glucose uptake in the treated cells was measured at 1, 3, 10 and 30 min after the addition of 2-dexoy-D-[^3H] glucose.
Direct action on glucose transporters was measured by monitoring uptake of 3H-labeled 3-O-methylglucose, which is transported by glucose transporters but not metabolized further, allowing the assessment of initial rate of glucose uptake. […] Initial uptake can also be assessed by measuring the uptake of 3H-labeled 2-deoxy-D-glucose, which gets into the cell through glucose transporters and is phosphorylated by hexokinase but cannot be metabolized further due to the lack of oxygen at the second position.

glucose transporters [7] = settings: RCC4; read-out: IC50 (cell line); cited from earlier work
glucose transporters [8] = settings: A549; read-out: IC50 (cell line); cited from earlier work

For `CCOC(=O)[C@@]12CCCCC/C=C\1N(C(=O)c1cccc3ccccc13)C(=O)[C@H]2CC(=O)N1CCN(C(=O)c2ccco2)CC1` [Compound 11], the pIC50 (glucose transporters [1]) is given as 5.70.

In the case of `CC(CN1C(=O)S/C(=C/c2ccc(O)c(C(F)(F)F)c2)C1=O)(CC(F)(F)F)CC(F)(F)F` [Cpd30], the pIC50 (glucose transporters [2]) is listed as 5.70.

In the case of `CC(=O)CC(=O)Nc1ccc(Cl)c(C(F)(F)F)c1` [Fasentin], the pIC50 (glucose transporters [3]) is listed as roughly 4.10.

In the case of `O=c1c(-c2ccc(O)cc2)coc2cc(O)cc(O)c12` [Genistein], the pIC50 (glucose transporters [4]) is listed as roughly 4.92.

In the case of `O=C(CCc1ccc(O)cc1)c1c(O)cc(O)cc1O` [Phloretin], the pIC50 (glucose transporters [5]) is listed as less than 5.00.

With `CCC(C)(C)C(=O)C(=O)N1CCCC[C@H]1C(=O)O[C@H](CCc1ccc(OC)c(OC)c1)c1cccc(OCC(=O)O)c1` [SLF, reference compound] the “antagonism of inhibitory effects of A18 or E11 on 2-deoxy-D-glucose uptake by FKBP ligands” value (glucose transporters [6]) was “significantly impaired the inhibitory activity of E11”.

For `CC(C)(C)c1ccc(S(=O)(=O)NCc2ccc(C(=O)Nc3cccnc3)cc2)cc1` [STF-31], the pIC50 (glucose transporters [7]) is listed as roughly 5.92.

For `O=C(Oc1cccc(F)c1OC(=O)c1cccc(O)c1)c1cccc(O)c1` [WZB117], the pIC50 (glucose transporters [8]) is listed as roughly 6.30.
